Values of other authors as cited in US7853626B2, “Computational systems for biomedical data” (The Invention Science Fund I, LLC, priority 2006, dated 2010).
Read-outs that look alike come from different tables or passages of the source.

Key:
hyperthyroidism = details: groups not comparable at baseline (surgery group younger, in better health)

Structure (SMILES)	frequency of illness and death compared with surgery (hyperthyroidism)	subset efficacy (members of the identified subpopulation (low methylmalonic acid / homocysteine))	odds ratio of developing severe toxicity (overall study population)	odds ratio of developing severe toxicity (subpopulation with total homocysteine levels of less than 7.5 μmol/l)
[131IH] [iodine-131]	much higher frequency of illness and death			
Nc1nc2[nH]cc(CCc3ccc(C(=O)N[C@@H](CCC(=O)O)C(=O)O)cc3)c2c(=O)[nH]1 [pemetrexed]		maintained or improved efficacy	1	0.7
